Experimental findings from patent publication US10494378B2, “Fused ring pyrimidine compound, intermediate, and preparation method, composition and use thereof” (GUANGZHOU MAXINOVEL PHARMACEUTICALS CO., LTD., priority 2015, dated 2019) are described below.

For assay [1], the target named is T1, JAK2 kinase (Homo sapiens, UniProt O60674).
T1 construct: purchased Carna 08-045
Briefly: IC50 evaluation assay on JAK2 kinase inhibition (Caliper). The note with it: adenosine triphosphate at Km; 1 hour at 28° C.; average of two tests; read-out: IC50 (nM) inhibiting JAK 2 kinase. It counts as biochemical. The protocol:
(§1) 1. The compound was dissolved in 100% DMSO, diluted into solutions with appropriate concentration gradients with water according to experimental requirement, and added to a 384-well plate.
(§2) 2. JAK2 kinase (Carna, Cat. No. 08-045, Lot. No. 07CBS-1927) and JAK3 kinase (Carna, Cat. No. 08-046, Lot. No. 08CBS-0371) were diluted to the optimum concentration with the following buffer solution: 50 mM HEPES, pH 7.5, 0.0015% Brij-35, 2 mM DTT. JAK1 kinase (Carna, Cat. No. 08-144, Lot. No. 11CBS-0144D) was diluted to the optimum concentration with the following buffer solution: 25 mM HEPES pH 7.5, 0.01% Brij-35, 2 mM DTT, 0.01M Triton. Transfer to the 384-well plate and incubated with the compound for a period of time.
(§3) 3. […] The substrate of JAK1 was diluted to the optimum concentration with the following buffer: 25 mM HEPES, pH 7.5, 0.01% Brij-35, 10 mM MgCl2, 0.01M Triton, adenosine triphosphate at Km. Add to the 384-well plate to initiate there action and react for 1 hour at 28° C.
(§4) 4. 1 Eq. of sulfuric acid solution was added to terminate the reaction, the conversion rate was read with Caliper Reader. The inhibition rate was calculated as the average of two tests.

For assay [2], the target named is T2, JAK3 kinase (Homo sapiens, UniProt P52333).
T2 construct: purchased Carna 08-046
T2 sequence (P52333 1-1124): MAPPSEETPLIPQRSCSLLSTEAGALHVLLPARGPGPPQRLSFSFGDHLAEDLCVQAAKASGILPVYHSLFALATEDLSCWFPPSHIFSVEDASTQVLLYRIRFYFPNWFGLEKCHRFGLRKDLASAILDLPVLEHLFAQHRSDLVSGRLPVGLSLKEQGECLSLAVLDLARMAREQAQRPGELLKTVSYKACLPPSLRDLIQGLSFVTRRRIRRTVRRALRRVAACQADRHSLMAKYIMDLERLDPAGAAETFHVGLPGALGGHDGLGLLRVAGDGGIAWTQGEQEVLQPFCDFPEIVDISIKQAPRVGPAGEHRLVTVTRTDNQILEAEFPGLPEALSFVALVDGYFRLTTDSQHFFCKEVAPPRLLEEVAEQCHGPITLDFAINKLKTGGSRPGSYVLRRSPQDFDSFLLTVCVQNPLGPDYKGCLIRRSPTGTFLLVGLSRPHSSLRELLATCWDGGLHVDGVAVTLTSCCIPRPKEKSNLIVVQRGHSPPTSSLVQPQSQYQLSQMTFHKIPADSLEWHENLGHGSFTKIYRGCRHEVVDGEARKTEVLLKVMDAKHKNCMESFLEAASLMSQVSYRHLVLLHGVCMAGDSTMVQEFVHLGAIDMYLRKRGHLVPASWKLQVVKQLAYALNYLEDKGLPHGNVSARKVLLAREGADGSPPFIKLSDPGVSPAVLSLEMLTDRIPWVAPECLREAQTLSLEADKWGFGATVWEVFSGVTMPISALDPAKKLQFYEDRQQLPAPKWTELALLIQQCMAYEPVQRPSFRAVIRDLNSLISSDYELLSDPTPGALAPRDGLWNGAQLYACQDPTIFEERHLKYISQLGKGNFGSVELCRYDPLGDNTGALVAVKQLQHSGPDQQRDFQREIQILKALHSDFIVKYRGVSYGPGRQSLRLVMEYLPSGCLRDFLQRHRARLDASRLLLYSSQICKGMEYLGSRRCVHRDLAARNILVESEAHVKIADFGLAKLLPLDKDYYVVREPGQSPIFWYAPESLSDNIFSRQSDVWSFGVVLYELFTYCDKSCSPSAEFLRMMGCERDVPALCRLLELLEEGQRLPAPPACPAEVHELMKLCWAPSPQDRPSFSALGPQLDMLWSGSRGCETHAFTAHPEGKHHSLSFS
Kind of assay: IC50 evaluation assay on JAK3 kinase inhibition (Caliper). It counts as biochemical. The settings on record: adenosine triphosphate at Km; 1 hour at 28° C.; average of two tests; read-out: IC50 (nM) inhibiting JAK 3 kinase. How it is done:
as §1, §2, §3, §4

T1 sequence (O60674 whole entry): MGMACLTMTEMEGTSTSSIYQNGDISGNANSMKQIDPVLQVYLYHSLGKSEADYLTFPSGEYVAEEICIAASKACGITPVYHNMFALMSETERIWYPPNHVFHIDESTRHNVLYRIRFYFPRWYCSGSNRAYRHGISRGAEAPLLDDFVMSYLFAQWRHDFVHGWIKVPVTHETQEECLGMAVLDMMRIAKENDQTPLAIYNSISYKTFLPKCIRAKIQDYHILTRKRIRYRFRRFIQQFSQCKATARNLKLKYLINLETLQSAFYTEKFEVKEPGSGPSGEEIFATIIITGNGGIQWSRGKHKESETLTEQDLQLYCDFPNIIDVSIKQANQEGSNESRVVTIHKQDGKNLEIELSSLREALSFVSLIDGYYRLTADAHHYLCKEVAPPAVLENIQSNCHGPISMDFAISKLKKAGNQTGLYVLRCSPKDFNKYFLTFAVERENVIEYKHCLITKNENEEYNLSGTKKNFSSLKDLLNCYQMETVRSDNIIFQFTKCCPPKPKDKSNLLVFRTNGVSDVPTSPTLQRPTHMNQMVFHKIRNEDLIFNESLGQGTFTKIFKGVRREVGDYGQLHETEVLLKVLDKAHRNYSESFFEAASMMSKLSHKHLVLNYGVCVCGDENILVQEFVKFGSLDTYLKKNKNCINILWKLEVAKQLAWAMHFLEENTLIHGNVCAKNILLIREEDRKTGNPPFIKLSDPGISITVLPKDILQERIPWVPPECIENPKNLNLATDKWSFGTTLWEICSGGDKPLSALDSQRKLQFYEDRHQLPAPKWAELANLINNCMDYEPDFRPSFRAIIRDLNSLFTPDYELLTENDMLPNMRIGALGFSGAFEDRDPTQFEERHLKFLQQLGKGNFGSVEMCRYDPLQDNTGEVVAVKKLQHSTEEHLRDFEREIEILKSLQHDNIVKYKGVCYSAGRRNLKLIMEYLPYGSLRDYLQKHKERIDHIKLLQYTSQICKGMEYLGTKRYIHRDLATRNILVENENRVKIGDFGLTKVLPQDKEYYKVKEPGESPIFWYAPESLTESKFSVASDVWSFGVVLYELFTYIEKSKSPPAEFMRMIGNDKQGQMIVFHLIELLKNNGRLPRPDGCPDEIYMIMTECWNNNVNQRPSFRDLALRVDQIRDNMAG

`COc1cc(F)ccc1-c1c(C)sc2cnc(Nc3cnn(C4CCN(CCO)CC4)c3)nc12` [Compound 34, 2-[4-(4-{[7-(4-fluoro-2-methoxyphenyl)-6-methylthieno[3,2-d]pyrimidinyl-2-yl]amino}-1H-pyrazol-1-yl)-piperidinyl-1-yl]-1-ethanol]: the IC50 – broadly, the concentration at which inhibition is half-maximal – in assay [1] is 0.71 nM; in assay [2] it was 1.1 nM.
